This note sets out measurements from US20230052424A1, “Peramivir Dry Powder Inhaler and Method of Preparing the Same” (GUANGZHOU NUCIEN PHARMACEUTICAL CO., LTD, priority 2020, published 2023).

For test [1], the system named is Influenza A/PR/8/34 virus. Nature of the test: In vivo protection of mice infected with influenza virus (mortality, survival time). Particulars: 10 mg/kg intragastric, once per day 5 days from 2 h post-infection, 10 mice, 15 days observed. More on the design: species or system Balb/c mice. The procedure: 80 SPF Balb/c mice, half male and half female, weighing 16.9˜22.6 g each, were stochastically divided into 8 groups: a normal control group, a virus model group, an oseltamivir phosphate capsule group (Tamiflu) (10 mg/kg), a peramivir intravenous injection group (10 mg/kg), and peramivir dry powder inhaler (example 3) groups I-IV (0.1, 0.3, 0.9, 2.7 mg/kg), ten mice in each group. […] Prior to daily administration, the peramivir intravenous injection was prepared into a 1.0 mg/mL liquor with 0.9% sodium chloride injection, and the oseltamivir phosphate capsule was prepared into a 0.5 mg/mL liquor with pure water. The mice in each group were all administered at 2 h post-modeling of the intranasal virus infection, wherein the mice in each peramivir dry powder inhaler group were administered with a corresponding dosage of peramivir dry powder inhaler, the mice in the peramivir intravenous injection group were intravenously injected with the peramivir liquid as per a dosage of 10 mL/kg, the oseltamivir phosphate capsule group were intragastrically administered with oseltamivir phosphate liquid as per a dosage of 20 mL/kg, and the normal control group and the model control group were sprayed with air of the same volume via their trachea. The mice were administered once per day, 5 days in succession. The first day (D1) of virus infection was counted from the next day of the intranasal virus inflection modeling.

Test [2] relates to Influenza A/PR/8/34 virus. Nature of the test: Viral titer of mouse lung tissue (hemagglutination titer). The class given is in vivo, Balb/c mice. The settings on record: 10 mg/kg intragastric once per day, lung suspension, logarithmic value of maximum dilution factor. The procedure: 84 SPF Balb/c mice, half male and half female, weighing 21.2˜26.6 g each, were stochastically divided into 7 groups: a normal control group, a virus model group, an oseltamivir phosphate capsule group (Tamiflu) (10 mg/kg), a peramivir I.V. group (10 mg/kg), and peramivir dry powder inhaler (example 3) groups I-III (0.1, 0.3, 0.9 mg/kg), twelve mice in each group (in each group, F04˜F06 and M04˜M06 were subjected to 24 h hemagglutination titer measurement, and F01˜F03 and M1˜M03 were subjected to 48 h hemagglutination titer measurement). […] Prior to daily administration, the peramivir I.V. injection was prepared into a 1.0 mg/mL liquor with 0.9% sodium chloride injection, and the oseltamivir phosphate capsule was prepared into a 0.5 mg/mL liquor with pure water. The mice in each group were all administered at 2 h post-modeling of the intranasal virus infection, wherein the mice in each peramivir DPI group were administered with a corresponding dosage of peramivir dry powder inhaler, the mice in the peramivir intravenous injection group were intravenously injected with the peramivir liquid as per a dosage of 10 mL/kg, the oseltamivir phosphate capsule group were intragastrically administered with oseltamivir phosphate liquid as per a dosage of 20 mL/kg, and the normal control group and the model control group were sprayed with air of the same volume via their trachea. The mice were administered once per day, 2 days in succession.
6 mice, half male and half female, were stochastically selected from each group at 24 h and 48 h post-administration, respectively. The mice were euthanized by cervical dislocation and their lungs were procured through dissection and then put in a homogenizer. 0.9% sodium chloride injection was added according to a ratio of the lung weight (g) to 0.9% sodium chloride injection (mL)=1:9, followed by grinding the homogenates into mouse lung suspensions. The mouse lung suspensions were subjected to centrifugation at 2500 rpm for 20 min under a 4° C. environment, with the supernatant being acquired for future use. Except the first column, 50 μL PBS (Phosphate Buffer Saline) was added into hemagglutination plate wells. 100 μL to-be-tested supernatant was added into each well in the first column, respectively, followed by adding with serial dilution till the wells in the 11th column, and then 50 μL 0.5% chicken erythrocyte was added into each well, respectively, followed by setting for 40 min; the hemagglutination plate was then tilted to observe whether the erythrocyte flew in a teardrop shape. […]

The mark [3] stands for this setting: listed as oseltamivir phosphate.

Marks after values point to notes of the source that are not given here.

With `CCOC(=O)C1=C[C@@H](OC(CC)CC)[C@H](NC(C)=O)[C@@H](N)C1` [Oseltamivir phosphate], the figures for the “Average number of survival days” value in test [1] and in test [1] (setting [3]) were 11.3 ± 4.8 days and “significantly prolonged”, respectively. The “Mortality rate (%)” value in test [1] was 40** %; in test [1] (setting [3]), “significantly decreased”. The Number of deaths in test [1] is recorded as 4. In test [1], the Number of survivals is on record as 6. The hemagglutination titer in test [2] (24 h, n = 6) is listed as 2.5 ± 0.5; in test [2] (24 h, n = 6, listed as oseltamivir phosphate) it was “notably decreased”; in test [2] (48 h, n = 6), 2.2 ± 0.8; in test [2] (48 h, n = 6, listed as oseltamivir phosphate), “notably decreased”.
